Source: ChEMBL document CHEMBL4507283, “Data for DCP probe BI-1935” (2021)
pKi: −log10 of the molar value.

Assays:
[1] = target: Ribosomal protein S6 kinase alpha-1 (Homo sapiens) (UniProt Q15418); settings: Compound concentration 1000.0 nM
[2] = target: Muscarinic acetylcholine receptor (Rattus norvegicus) (UniProt P08482+P08483+P08485+P08911+P10980); experiment: MUSCARIN/NS Eurofins-Panlabs selectivity data (BI); format: protein assay; settings: Compound concentration 10.0 uM
[3] = tested on: Serine/threonine-protein kinase B-raf (Homo sapiens), P15056 [V600E]; settings: Compound concentration 1000.0 nM
[4] = target: Serine/threonine-protein kinase Sgk2 (Homo sapiens) (UniProt Q9HBY8); settings: Compound concentration 1000.0 nM
[5] = target: Non-receptor tyrosine-protein kinase TYK2 (Homo sapiens) (UniProt P29597); settings: Compound concentration 1000.0 nM
[6] = target: Membrane-associated tyrosine- and threonine-specific cdc2-inhibitory kinase (Homo sapiens) (UniProt Q99640); settings: Compound concentration 1000.0 nM
[7] = target: Sodium-dependent serotonin transporter (Homo sapiens) (UniProt P31645); settings: Compound concentration 10.0 uM
[8] = target: Vascular endothelial growth factor receptor 1 (Homo sapiens) (UniProt P17948); settings: Compound concentration 1000.0 nM
[9] = target: Phosphatidylinositol 4,5-bisphosphate 3-kinase catalytic subunit alpha isoform (Homo sapiens) (UniProt P42336); settings: Compound concentration 1000.0 nM
[10] = target: Rho-associated protein kinase 1 (Homo sapiens) (UniProt Q13464); settings: Compound concentration 1000.0 nM
[11] = target: Prostaglandin G/H synthase 2 (Homo sapiens) (UniProt P35354); experiment: COX-2 Eurofins-Panlabs selectivity data (BI); settings: Compound concentration 10.0 uM
[12] = target: Testis-specific serine/threonine-protein kinase 3 (Homo sapiens) (UniProt Q96PN8); settings: Compound concentration 1000.0 nM
[13] = target: Interstitial collagenase (Homo sapiens) (UniProt P03956); experiment: PEP_MMP-1 Eurofins-Panlabs selectivity data (BI); settings: Compound concentration 10.0 uM
[14] = target: Serine/threonine-protein kinase Nek4 (Homo sapiens) (UniProt P51957); settings: Compound concentration 1000.0 nM
[15] = target: 5-hydroxytryptamine receptor 1E (Homo sapiens) (UniProt P28566); settings: Compound concentration 10.0 uM
[16] = target: Sodium-dependent dopamine transporter (Homo sapiens, UniProt Q01959); experiment: GPCRScan assay: inhibition of DAT; parameters: radioligand conc. used [nm] 3.6 – 16.0, parental cells stable HEK
[17] = target: Cyclin-dependent kinase 18 (Homo sapiens) (UniProt Q07002); settings: Compound concentration 1000.0 nM
[18] = target: Receptor-type tyrosine-protein kinase FLT3 (Homo sapiens) (UniProt P36888); settings: Compound concentration 1000.0 nM
[19] = target: D(1A) dopamine receptor (Homo sapiens) (UniProt P21728); settings: Compound concentration 10.0 uM
[20] = target: Phosphatidylinositol 5-phosphate 4-kinase type-2 gamma (Homo sapiens) (UniProt Q8TBX8); settings: Compound concentration 1000.0 nM
[21] = target: NUAK family SNF1-like kinase 2 (Homo sapiens) (UniProt Q9H093); settings: Compound concentration 1000.0 nM
[22] = target: Inhibitor of nuclear factor kappa-B kinase subunit epsilon (Homo sapiens) (UniProt Q14164); settings: Compound concentration 1000.0 nM
[23] = target: SRSF protein kinase 1 (Homo sapiens) (UniProt Q96SB4); settings: Compound concentration 1000.0 nM
[24] = tested on: Epidermal growth factor receptor (Homo sapiens), P00533 [UNDEFINED MUTATION]; settings: Compound concentration 1000.0 nM
[25] = target: Calcium/calmodulin-dependent protein kinase kinase 2 (Homo sapiens) (UniProt Q96RR4); settings: Compound concentration 1000.0 nM
[26] = target: Tyrosine-protein kinase Lck (Homo sapiens) (UniProt P06239); settings: Compound concentration 1000.0 nM
[27] = target: Amine oxidase [flavin-containing] A (MAO-A) (Homo sapiens, UniProt P21397); experiment: MAOA Eurofins-Panlabs selectivity data (BI); parameters: mode of action inhibitor; settings: compound concentration 10 uM, read-out: % Ctrl
[28] = target: Serine/threonine-protein kinase 33 (Homo sapiens) (UniProt Q9BYT3); settings: Compound concentration 1000.0 nM
[29] = target: Serine/threonine-protein kinase TBK1 (Homo sapiens) (UniProt Q9UHD2); settings: Compound concentration 1000.0 nM
[30] = target: Cyclin-dependent kinase 17 (Homo sapiens) (UniProt Q00537); settings: Compound concentration 1000.0 nM
[31] = target: Small conductance calcium-activated potassium channel protein 1 (Rattus norvegicus) (UniProt P70606); experiment: K+/SKCA Eurofins-Panlabs selectivity data (BI); settings: Compound concentration 10.0 uM
[32] = target: Serine/threonine-protein kinase WNK4 (Homo sapiens) (UniProt Q96J92); settings: Compound concentration 1000.0 nM
[33] = target: Tyrosine-protein kinase receptor TYRO3 (Homo sapiens) (UniProt Q06418); settings: Compound concentration 1000.0 nM
[34] = target: Mitogen-activated protein kinase kinase kinase kinase 3 (Homo sapiens) (UniProt Q8IVH8); settings: Compound concentration 1000.0 nM
[35] = target: Tyrosine-protein kinase CSK (Homo sapiens) (UniProt P41240); settings: Compound concentration 1000.0 nM
[36] = target: Myosin light chain kinase 2, skeletal/cardiac muscle (Homo sapiens) (UniProt Q9H1R3); settings: Compound concentration 1000.0 nM
[37] = target: Tyrosine-protein kinase Lyn (Homo sapiens) (UniProt P07948); settings: Compound concentration 1000.0 nM
[38] = target: Calcium/calmodulin-dependent protein kinase type 1G (Homo sapiens) (UniProt Q96NX5); settings: Compound concentration 1000.0 nM
[39] = target: Beta-2 adrenergic receptor (Rattus norvegicus) (UniProt P10608); experiment: BETA/R Eurofins-Panlabs selectivity data (BI); settings: Compound concentration 10.0 uM
[40] = target: Serine/threonine-protein kinase Nek5 (Homo sapiens) (UniProt Q6P3R8); settings: Compound concentration 1000.0 nM
[41] = target: Peripheral plasma membrane protein CASK (Homo sapiens) (UniProt O14936); settings: Compound concentration 1000.0 nM
[42] = target: Phosphatidylinositol 4-phosphate 5-kinase type-1 alpha (Homo sapiens) (UniProt Q99755); settings: Compound concentration 1000.0 nM
[43] = target: Serine/threonine-protein kinase Nek7 (Homo sapiens) (UniProt Q8TDX7); settings: Compound concentration 1000.0 nM
[44] = target: Mitogen-activated protein kinase kinase kinase 4 (Homo sapiens) (UniProt Q9Y6R4); settings: Compound concentration 1000.0 nM

Sodium-dependent dopamine transporter, sequence (Q01959 whole entry): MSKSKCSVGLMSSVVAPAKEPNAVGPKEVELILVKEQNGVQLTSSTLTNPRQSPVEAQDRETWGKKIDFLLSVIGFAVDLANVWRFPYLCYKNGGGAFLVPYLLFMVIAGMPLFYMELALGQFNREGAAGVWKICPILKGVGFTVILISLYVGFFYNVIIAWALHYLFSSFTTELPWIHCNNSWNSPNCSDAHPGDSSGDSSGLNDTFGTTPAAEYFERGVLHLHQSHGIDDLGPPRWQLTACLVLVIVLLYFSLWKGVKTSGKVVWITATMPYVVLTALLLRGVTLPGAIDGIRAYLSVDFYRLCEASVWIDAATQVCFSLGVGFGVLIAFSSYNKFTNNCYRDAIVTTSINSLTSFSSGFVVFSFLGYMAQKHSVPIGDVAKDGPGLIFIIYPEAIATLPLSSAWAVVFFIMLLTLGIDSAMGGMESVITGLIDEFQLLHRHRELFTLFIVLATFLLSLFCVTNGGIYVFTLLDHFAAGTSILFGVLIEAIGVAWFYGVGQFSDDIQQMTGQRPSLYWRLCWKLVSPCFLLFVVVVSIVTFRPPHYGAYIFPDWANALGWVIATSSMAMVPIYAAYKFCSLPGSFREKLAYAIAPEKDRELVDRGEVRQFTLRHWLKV
Phosphatidylinositol 4-phosphate 5-kinase type-1 alpha (Homo sapiens), sequence (Q99755 whole entry): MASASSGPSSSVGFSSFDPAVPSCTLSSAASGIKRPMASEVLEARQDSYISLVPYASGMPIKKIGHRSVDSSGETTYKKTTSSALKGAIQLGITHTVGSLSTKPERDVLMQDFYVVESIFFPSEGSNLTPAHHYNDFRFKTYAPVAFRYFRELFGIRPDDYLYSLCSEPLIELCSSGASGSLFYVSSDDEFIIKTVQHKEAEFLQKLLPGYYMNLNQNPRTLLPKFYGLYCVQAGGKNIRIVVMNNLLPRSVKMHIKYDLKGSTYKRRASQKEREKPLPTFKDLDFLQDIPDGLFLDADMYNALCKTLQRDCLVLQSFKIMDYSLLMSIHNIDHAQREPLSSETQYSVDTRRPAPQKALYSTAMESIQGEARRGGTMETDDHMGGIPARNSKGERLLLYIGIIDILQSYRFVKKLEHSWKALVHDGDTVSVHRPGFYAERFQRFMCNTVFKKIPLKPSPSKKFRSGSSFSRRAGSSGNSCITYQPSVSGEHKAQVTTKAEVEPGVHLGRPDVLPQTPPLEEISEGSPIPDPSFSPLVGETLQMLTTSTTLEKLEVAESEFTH
Serine/threonine-protein kinase Nek5 (Homo sapiens), sequence (Q6P3R8 whole entry): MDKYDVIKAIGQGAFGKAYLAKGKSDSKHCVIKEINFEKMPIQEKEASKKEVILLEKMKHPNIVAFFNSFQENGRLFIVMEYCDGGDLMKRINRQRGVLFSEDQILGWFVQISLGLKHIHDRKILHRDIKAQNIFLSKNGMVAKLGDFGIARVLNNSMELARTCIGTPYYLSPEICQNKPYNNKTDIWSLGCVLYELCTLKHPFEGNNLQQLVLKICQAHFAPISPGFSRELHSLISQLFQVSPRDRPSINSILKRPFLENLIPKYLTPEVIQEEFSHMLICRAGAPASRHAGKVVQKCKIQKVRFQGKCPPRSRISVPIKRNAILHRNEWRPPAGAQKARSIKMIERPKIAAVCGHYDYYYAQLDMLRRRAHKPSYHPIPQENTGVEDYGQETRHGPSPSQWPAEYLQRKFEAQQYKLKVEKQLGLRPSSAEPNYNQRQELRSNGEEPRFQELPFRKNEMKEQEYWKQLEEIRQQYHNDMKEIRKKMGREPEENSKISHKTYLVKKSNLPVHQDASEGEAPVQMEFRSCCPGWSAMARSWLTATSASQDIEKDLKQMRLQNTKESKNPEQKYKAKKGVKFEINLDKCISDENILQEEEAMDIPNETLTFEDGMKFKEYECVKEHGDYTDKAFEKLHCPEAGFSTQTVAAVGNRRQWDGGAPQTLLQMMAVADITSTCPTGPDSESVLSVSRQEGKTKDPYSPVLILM
Testis-specific serine/threonine-protein kinase 3 (Homo sapiens), sequence (Q96PN8 whole entry): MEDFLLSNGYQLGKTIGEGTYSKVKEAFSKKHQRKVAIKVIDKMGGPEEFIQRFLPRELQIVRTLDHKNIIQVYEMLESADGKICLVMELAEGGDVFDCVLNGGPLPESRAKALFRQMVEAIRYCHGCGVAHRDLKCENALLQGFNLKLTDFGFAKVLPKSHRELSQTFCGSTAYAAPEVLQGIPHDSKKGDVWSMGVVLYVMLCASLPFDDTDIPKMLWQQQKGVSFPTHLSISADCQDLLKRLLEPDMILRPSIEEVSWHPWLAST
Tyrosine-protein kinase CSK (Homo sapiens), sequence (P41240 2-450 limits assumed): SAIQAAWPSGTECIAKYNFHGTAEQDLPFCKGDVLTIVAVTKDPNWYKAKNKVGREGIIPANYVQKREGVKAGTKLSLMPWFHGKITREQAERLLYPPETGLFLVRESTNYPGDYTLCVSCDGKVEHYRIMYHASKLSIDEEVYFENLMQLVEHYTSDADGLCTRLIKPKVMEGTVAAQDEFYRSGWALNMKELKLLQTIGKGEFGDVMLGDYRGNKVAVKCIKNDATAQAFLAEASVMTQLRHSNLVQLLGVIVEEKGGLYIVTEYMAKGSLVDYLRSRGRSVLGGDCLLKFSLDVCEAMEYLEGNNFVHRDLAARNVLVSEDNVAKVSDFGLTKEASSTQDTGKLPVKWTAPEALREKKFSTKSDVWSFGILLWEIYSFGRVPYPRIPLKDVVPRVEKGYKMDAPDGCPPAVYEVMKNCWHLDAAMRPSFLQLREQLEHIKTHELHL
Serine/threonine-protein kinase Nek7 (Homo sapiens), sequence (Q8TDX7 whole entry, looked up): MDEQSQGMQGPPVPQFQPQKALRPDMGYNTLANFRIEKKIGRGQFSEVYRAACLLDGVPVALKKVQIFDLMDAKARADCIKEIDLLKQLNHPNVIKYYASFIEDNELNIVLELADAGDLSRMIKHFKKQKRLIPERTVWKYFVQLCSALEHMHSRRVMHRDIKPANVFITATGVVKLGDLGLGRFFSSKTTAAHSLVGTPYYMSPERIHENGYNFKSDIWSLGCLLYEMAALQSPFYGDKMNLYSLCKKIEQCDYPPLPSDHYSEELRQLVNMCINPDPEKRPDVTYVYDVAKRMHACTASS
Inhibitor of nuclear factor kappa-B kinase subunit epsilon (Homo sapiens), sequence (Q14164 whole entry): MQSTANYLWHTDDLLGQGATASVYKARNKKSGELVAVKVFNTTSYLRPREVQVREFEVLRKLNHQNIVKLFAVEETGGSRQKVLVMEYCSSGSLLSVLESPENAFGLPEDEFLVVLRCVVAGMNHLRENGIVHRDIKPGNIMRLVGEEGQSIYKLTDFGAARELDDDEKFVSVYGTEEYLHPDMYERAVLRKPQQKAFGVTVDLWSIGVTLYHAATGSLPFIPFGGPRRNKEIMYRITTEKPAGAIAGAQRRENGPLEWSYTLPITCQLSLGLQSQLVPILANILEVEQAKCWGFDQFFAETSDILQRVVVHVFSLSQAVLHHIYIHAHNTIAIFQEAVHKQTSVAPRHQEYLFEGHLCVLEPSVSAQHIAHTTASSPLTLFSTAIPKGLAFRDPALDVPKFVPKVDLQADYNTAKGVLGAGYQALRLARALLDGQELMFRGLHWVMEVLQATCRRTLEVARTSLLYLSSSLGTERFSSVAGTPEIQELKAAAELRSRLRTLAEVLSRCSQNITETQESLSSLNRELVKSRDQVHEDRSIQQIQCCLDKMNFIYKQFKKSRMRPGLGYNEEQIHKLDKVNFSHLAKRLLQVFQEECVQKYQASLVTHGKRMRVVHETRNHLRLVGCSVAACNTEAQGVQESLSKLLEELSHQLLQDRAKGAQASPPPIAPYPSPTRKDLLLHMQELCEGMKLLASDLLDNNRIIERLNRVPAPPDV
Ribosomal protein S6 kinase alpha-1 (Homo sapiens), sequence (Q15418 whole entry): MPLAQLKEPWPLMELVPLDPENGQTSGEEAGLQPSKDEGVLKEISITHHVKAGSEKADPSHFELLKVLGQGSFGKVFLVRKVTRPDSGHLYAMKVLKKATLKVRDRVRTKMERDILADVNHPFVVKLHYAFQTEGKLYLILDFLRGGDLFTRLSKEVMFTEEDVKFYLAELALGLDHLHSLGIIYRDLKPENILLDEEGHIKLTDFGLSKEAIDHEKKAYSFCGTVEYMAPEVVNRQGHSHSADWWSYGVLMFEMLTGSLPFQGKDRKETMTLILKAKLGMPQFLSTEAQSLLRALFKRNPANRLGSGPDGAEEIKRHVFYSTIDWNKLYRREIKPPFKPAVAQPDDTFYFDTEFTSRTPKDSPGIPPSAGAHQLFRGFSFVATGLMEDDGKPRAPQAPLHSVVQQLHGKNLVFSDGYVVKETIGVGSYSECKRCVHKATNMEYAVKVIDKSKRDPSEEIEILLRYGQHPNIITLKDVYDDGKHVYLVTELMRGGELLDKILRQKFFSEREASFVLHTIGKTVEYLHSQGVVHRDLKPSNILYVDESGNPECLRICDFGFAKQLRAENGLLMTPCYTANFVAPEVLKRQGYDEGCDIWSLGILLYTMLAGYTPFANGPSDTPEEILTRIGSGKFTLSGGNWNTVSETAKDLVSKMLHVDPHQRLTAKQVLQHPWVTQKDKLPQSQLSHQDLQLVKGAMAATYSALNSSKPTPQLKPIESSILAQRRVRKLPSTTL
Cyclin-dependent kinase 17 (Homo sapiens), sequence (Q00537 whole entry, looked up): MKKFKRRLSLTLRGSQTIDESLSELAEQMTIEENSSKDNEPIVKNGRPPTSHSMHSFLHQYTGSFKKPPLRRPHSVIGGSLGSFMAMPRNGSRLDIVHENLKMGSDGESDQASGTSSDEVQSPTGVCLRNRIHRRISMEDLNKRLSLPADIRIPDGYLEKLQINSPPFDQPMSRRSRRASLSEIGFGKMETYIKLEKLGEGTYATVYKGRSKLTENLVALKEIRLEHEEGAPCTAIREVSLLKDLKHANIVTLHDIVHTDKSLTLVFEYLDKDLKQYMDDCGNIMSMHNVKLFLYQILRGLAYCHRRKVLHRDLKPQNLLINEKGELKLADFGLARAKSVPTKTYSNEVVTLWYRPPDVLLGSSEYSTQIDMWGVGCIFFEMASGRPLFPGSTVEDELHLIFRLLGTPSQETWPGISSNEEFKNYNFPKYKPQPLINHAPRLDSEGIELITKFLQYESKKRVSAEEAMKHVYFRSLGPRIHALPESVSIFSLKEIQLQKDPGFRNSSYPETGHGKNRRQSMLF

In the case of `CCOCCn1cc(C(=O)Nc2ccc(-n3nc(-c4cccnc4)cc3C(F)(F)F)cn2)ccc1=O` [BI 1935], the residual activity [1] was 99%, the residual activity [2] was 112% and the residual activity [3] was 97%. The residual activity [4] was 100%, the residual activity [5] was 77% and the residual activity [6] was 100%. The inhibition [7] was 8.63%, the residual activity [8] was 100% and the residual activity [9] was 92%. For the same compound, the residual activity [10] was 74%, the residual activity [11] was 108% and the residual activity [12] was 100%. For the same compound, the residual activity [13] was 100%, the residual activity [14] was 80% and the inhibition [15] was -4.17%. The pKi ([16]; read-out: Ki) was 5.35, the Ki ([16]; read-out: pKi (converted)) was 5.01 µM and the residual activity [17] was 98%. The residual activity [18] was 63%, the inhibition [19] was -7.31% and the residual activity [20] was 100%. It also gave a residual activity [21] of 73%, a residual activity [22] of 79% and a residual activity [23] of 98%. For the same compound, the residual activity [24] was 96%, the residual activity [25] was 100% and the residual activity [26] was 100%. The activity at 10 µM [27] was 27%, the residual activity [28] was 94% and the residual activity [29] was 76%. It also gave a residual activity [30] of 96%, a residual activity [31] of 106% and a residual activity [32] of 91%. For the same compound, the residual activity [33] was 0%, the residual activity [34] was 85% and the residual activity [35] was 100%. The residual activity [36] was 89%, the residual activity [37] was 81% and the residual activity [38] was 100%. The residual activity [39] was 98%, the residual activity [40] was 100% and the residual activity [41] was 85%. It also gave a residual activity [42] of 100%, a residual activity [43] of 100% and a residual activity [44] of 59%.
